Test results as given in patent publication US20210205195A1, “PRESERVED COMPOSITIONS” (Conopco, Inc., d/b/a UNILEVER, priority 2018, published 2021).

Legend:
[1] = test system: Pseudomonas aeruginosa, Burkholderia cepacia, Strenotrophomonas sp; assay: Modified Ph. Eur. 5.1.3 microbial challenge test in hair conditioner, Pool 1 (Gram negative non-fermenters); type: cell-based
Procedure: (§1) Itaconic acid, lactic acid and citric acid were purchased from Sigma-Aldrich. Six samples of unpreserved conditioner were dosed with 0.5% and 1% (w/w) itaconic acid, citric acid and lactic acid separately. An unpreserved sample was kept as a control. Each dosed product was adjusted to pH 5 using 50% sodium hydroxide (Sigma-Aldrich). A modified challenge test to that of the European Pharmacopoeia (Ph. Eur. Or EP) 5.1.3 criteria was performed on a subsample of unpreserved and each dosed product. The microbial challenge pools were added to each sample container at a ratio of 1:100. The final concentration of inoculum in the product should be 5×10^6 CFU/G of test product. Each product is mixed with a sterile spatula to ensure a homogenous distribution of the inocula throughout the product. [table] Both the inoculum level and the level of microorganism within each sample was quantified using a Total Viable Count (TVC) pour plate method at 7, 14, 21 and 28 days. A 1:10 dilution was made with a subsample of each product, performed separately in Peptone (0.1%)/tween 80 (2%) neutralising agent. A 1:10 and 1:100 dilution of each subsample was performed and pour plates produced at each dilution using tryptone soya agar. Plates were incubated at 28° C. for 48 hours and then examined for growth. Visible colonies were counted with the aid of a Quebec Colony Counter and recorded for analysis against the challenge test criteria. During the removal of a subsample of product for TVC, a reinoculation is performed at 7 and 14 days, reintroducing 5×10^6 CFU/G of bacteria before mixing using a sterile spatula to homogenise the reinoculation. [table]

[2] = test system: Enterobacter cloacae, Klebsiella sp; assay: Modified Ph. Eur. 5.1.3 microbial challenge test in hair conditioner, Pool 2 (Gram negative fermenters); type: cell-based
Procedure: as §1

[3] = 0.5% (w/w) in conditioner, pH 5, Pool 1, 7 days
[4] = 0.5% (w/w) in conditioner, pH 5, Pool 1, 14 days
[5] = 0.5% (w/w) in conditioner, pH 5, Pool 1, 21 days
[6] = 0.5% (w/w) in conditioner, pH 5, Pool 1, 28 days
[7] = 1% (w/w) in conditioner, pH 5, Pool 1, 7 days
[8] = 1% (w/w) in conditioner, pH 5, Pool 1, 14 days
[9] = 1% (w/w) in conditioner, pH 5, Pool 1, 21 days
[10] = 1% (w/w) in conditioner, pH 5, Pool 1, 28 days
[11] = 0.5% (w/w) in conditioner, pH 5, Pool 2, 7 days
[12] = 0.5% (w/w) in conditioner, pH 5, Pool 2, 14 days
[13] = 0.5% (w/w) in conditioner, pH 5, Pool 2, 21 days
[14] = 0.5% (w/w) in conditioner, pH 5, Pool 2, 28 days
[15] = 1% (w/w) in conditioner, pH 5, Pool 2, 7 days
[16] = 1% (w/w) in conditioner, pH 5, Pool 2, 14 days
[17] = 1% (w/w) in conditioner, pH 5, Pool 2, 21 days
[18] = 1% (w/w) in conditioner, pH 5, Pool 2, 28 days

With `O=C(O)CC(O)(CC(=O)O)C(=O)O` [Citric acid, citric acid] the “Microbial Log reduction” value [1, 3] was >5.85, the “Microbial Log reduction” value [1, 4] was >5.89 and the “Microbial Log reduction” value [1, 5] was >5.79. The “Microbial Log reduction” value [1, 6] was >5.79, the “Microbial Log reduction” value [1, 7] was >5.85 and the “Microbial Log reduction” value [1, 8] was >5.89. The “Microbial Log reduction” value [1, 9] was >5.79, the “Microbial Log reduction” value [1, 10] was >5.79 and the “Microbial Log reduction” value [2, 11] was 3.20. The “Microbial Log reduction” value [2, 12] was 2.28, the “Microbial Log reduction” value [2, 13] was <2.82 and the “Microbial Log reduction” value [2, 14] was 2.72. For the same molecule, the “Microbial Log reduction” value [2, 15] was 4.67, the “Microbial Log reduction” value [2, 16] was 2.86 and the “Microbial Log reduction” value [2, 17] was <2.82. For the same molecule, the “Microbial Log reduction” value [2, 18] was 3.69.
`C=C(CC(=O)O)C(=O)O` [Itaconic acid] was tested, and the “Microbial Log reduction” value [1, 3] was >5.85, the “Microbial Log reduction” value [1, 4] was >5.89 and the “Microbial Log reduction” value [1, 5] was >5.79. The “Microbial Log reduction” value [1, 6] was >5.79, the “Microbial Log reduction” value [1, 7] was >5.85 and the “Microbial Log reduction” value [1, 8] was >5.89. For the same molecule, the “Microbial Log reduction” value [1, 9] was >5.79, the “Microbial Log reduction” value [1, 10] was >5.79 and the “Microbial Log reduction” value [2, 11] was >5.72. The “Microbial Log reduction” value [2, 12] was >5.61, the “Microbial Log reduction” value [2, 13] was >5.82 and the “Microbial Log reduction” value [2, 14] was >5.82. The “Microbial Log reduction” value [2, 15] was >5.72, the “Microbial Log reduction” value [2, 16] was >5.61 and the “Microbial Log reduction” value [2, 17] was >5.82. The “Microbial Log reduction” value [2, 18] was >5.82.
In the case of `CC(O)C(=O)O` (stereo not drawn) [Lactic acid, lactic acid], the “Microbial Log reduction” value [1, 3] was >5.85, the “Microbial Log reduction” value [1, 4] was >5.89 and the “Microbial Log reduction” value [1, 5] was >5.79. The “Microbial Log reduction” value [1, 6] was >5.79, the “Microbial Log reduction” value [1, 7] was >5.85 and the “Microbial Log reduction” value [1, 8] was >5.89. For the same molecule, the “Microbial Log reduction” value [1, 9] was >5.79, the “Microbial Log reduction” value [1, 10] was >5.79 and the “Microbial Log reduction” value [2, 11] was 3.73. The “Microbial Log reduction” value [2, 12] was 3.70, the “Microbial Log reduction” value [2, 13] was <2.82 and the “Microbial Log reduction” value [2, 14] was <2.82. For the same molecule, the “Microbial Log reduction” value [2, 15] was 3.69, the “Microbial Log reduction” value [2, 16] was 3.58 and the “Microbial Log reduction” value [2, 17] was 4.02. The “Microbial Log reduction” value [2, 18] was 4.62.
